Data taken from patent US11142515B2, “Pyrazolyl-ureas as kinase inhibitors” (RESPIVERT LIMITED, priority 2014, dated 2021).

Assays:
[1] = target: T1, p38 MAPKα isoform (MAPK14) (Homo sapiens, UniProt Q16539); assay: p38 MAPKα enzyme inhibition (Z-LYTE FRET); format: biochemical; conditions: Table 2B, unit inferred; read-out: p38 MAPKα (Enzyme Profile)
T1 construct: purchased Life Technologies
Method in brief: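 Recombinant human MAPK14 (40 ng/mL stock) was preincubated 2 h at RT with compound (stock dilutions 0.0012-40 μg/mL). The Z-LYTE FRET read-out used a MAPKAP-K2-derived peptide, and protease development for 1 h cleaved only non-phosphorylated peptide. Phosphorylation was calculated from the coumarin/fluorescein emission ratio.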

[2] = target: T2, p38MAPKγ (MAPK12) (Homo sapiens, UniProt P53778); assay: p38 MAPKγ enzyme inhibition (Z-LYTE FRET); format: biochemical; conditions: Table 2B, unit inferred; read-out: p38 MAPKγ (Enzyme Profile)
T2 construct: purchased Life Technologies
T2 sequence (P53778 1-367): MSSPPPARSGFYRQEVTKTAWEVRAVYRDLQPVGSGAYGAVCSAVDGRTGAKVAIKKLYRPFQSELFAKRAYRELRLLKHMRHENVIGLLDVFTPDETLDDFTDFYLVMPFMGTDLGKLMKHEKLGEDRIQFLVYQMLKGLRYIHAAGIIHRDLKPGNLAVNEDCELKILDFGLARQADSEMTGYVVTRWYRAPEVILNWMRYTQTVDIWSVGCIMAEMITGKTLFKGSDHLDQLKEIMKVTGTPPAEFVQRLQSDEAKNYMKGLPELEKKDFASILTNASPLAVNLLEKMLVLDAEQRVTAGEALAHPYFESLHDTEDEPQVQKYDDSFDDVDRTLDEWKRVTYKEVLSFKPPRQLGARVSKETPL
Method in brief: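 Z-LYTE read-out: after 1 h protease development, only non-phosphorylated peptide is cleaved, and the donor/acceptor (coumarin/fluorescein) ratio reports phosphorylation. Beforehand, enzyme and compound (stock concentrations 0.0012–40 μg/mL) were preincubated 2 h at RT, then the kinase reaction ran 1 h at RT with peptide and ATP (8 μM and 400 μM stocks).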

T1 sequence (Q16539 whole entry, canonical isoform): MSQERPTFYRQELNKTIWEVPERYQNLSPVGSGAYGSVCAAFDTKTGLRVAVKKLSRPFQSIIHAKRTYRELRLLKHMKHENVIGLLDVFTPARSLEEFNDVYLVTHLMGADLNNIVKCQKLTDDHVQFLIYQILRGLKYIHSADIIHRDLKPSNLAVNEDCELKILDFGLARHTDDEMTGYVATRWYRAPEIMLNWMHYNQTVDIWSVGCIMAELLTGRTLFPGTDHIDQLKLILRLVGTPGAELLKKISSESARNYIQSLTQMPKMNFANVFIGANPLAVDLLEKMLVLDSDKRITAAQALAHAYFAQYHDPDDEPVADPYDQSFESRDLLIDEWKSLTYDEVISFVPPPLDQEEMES

**Q.** `CCc1cncc(Nc2cc(COc3ccc(NC(=O)Nc4cc(C(C)(C)C)nn4-c4cccc(C)c4)c4ccccc34)ccn2)n1` [Example 141, 1-(3-(tert-butyl)-1-(m-tolyl)-1H-pyrazol-5-yl)-3-(4-((2-((6-ethylpyrazin-2-yl)amino)pyridin-4-yl)methoxy)naphthalen-1-yl)urea] was tested. Which IC50 [1] did it give?
**A.** The IC50 was 18 nM.

**Q.** What about the IC50 [2] of the same compound?
**A.** The IC50 was 438 nM.

**Q.** Which IC50 [1] does the source give for `COCCc1cncc(Nc2cc(COc3ccc(NC(=O)Nc4cc(C(C)(C)C)nn4-c4ccc(C)cc4)c4ccccc34)ccn2)n1` [Example 154, 1-(3-(tert-butyl)-1-(p-tolyl)-1H-pyrazol-5-yl)-3-(4-((2-((6-(2-methoxyethyl)pyrazin-2-yl)amino)pyridin-4-yl)methoxy)naphthalen-1-yl)urea] here?
**A.** The IC50 was 10 nM.

**Q.** And the IC50 [2]?
**A.** Its IC50 is 49 nM.

**Q.** What does the source list for `CCc1ccc(-n2nc(C(C)(C)C)cc2NC(=O)Nc2ccc(OCc3ccnc(Nc4cnc(C)c(C)n4)c3)c3ccccc23)cc1` [Example 251, 1-(3-(tert-butyl)-1-(4-ethyl-phenyl)-1H-pyrazol-5-yl)-3-(4-((2-((5,6-dimethylpyrazin-2-yl)amino)pyridin-4-yl)methoxy)naphthalen-1-yl) urea]?
**A.** IC50 [1]: 81 nM; IC50 [2]: > 15600 nM

**Q.** What does the source list for `Cc1cccc(-n2nc(C(C)(C)C)cc2NC(=O)Nc2ccc(OCc3ccnc(Nc4cnc(C(=O)N5CC[C@@H](O)C5)cn4)c3)c3ccccc23)c1` [Example 69]?
**A.** IC50 [1]: 8 nM; IC50 [2]: 106 nM

**Q.** How did the IC50 [1] turn out when `CC(C)(C)c1cc(NC(=O)Nc2ccc(OCc3ccnc(Nc4cnc(C(=O)N5CCCC5)cn4)c3)c3ccccc23)n(-c2cccc(F)c2)n1` [Example 202, 1-(3-(tert-butyl)-1-(3-fluorophenyl)-1H-pyrazol-5-yl)-3-(4-((2-((5-(pyrrolidine-1-carbonyl)pyrazin-2-yl)amino)pyridin-4-yl)methoxy)naphthalen-1-yl)urea] was run?
**A.** Its IC50 is 19 nM.

**Q.** And the IC50 [2]?
**A.** The IC50 was 1130 nM.

**Q.** `CO[C@@H]1CCN(C(=O)c2cnc(Nc3cc(COc4ccc(NC(=O)Nc5cc(C(C)(C)C)nn5-c5cccc(C)c5)c5ccccc45)ccn3)cn2)C1` [Example 199, (R)-1-(3-(tert-butyl)-1-(m-tolyl)-1H-pyrazol-5-yl)-3-(4-((2-((5-(3-methoxy-pyrrolidine-1-carbonyl)pyrazin-2-yl)amino)pyridin-4-yl)methoxy)naphthalen-1-yl)urea] was tested. Which IC50 [1] did it give?
**A.** Its IC50 is 11 nM.

**Q.** What about the IC50 [2] of the same compound?
**A.** The IC50 was greater than 13800 nM.

**Q.** With `Cc1ccc(-n2nc(C(C)(C)C)cc2NC(=O)Nc2ccc(OCc3ccnc(Nc4cnc(C(=O)N5CCC(F)(F)CC5)cn4)c3)c3ccccc23)cc1` [Example 246, 1-(3-(tert-butyl)-1-(p-tolyl)-1H-pyrazol-5-yl)-3-(4-((2-((5-(4,4-difluoropiperidine-1-carbonyl)pyrazin-2-yl)amino)pyridin-4-yl)methoxy)naphthalen-1-yl)urea] as the compound, how does the IC50 [1] read?
**A.** The IC50 was 58 nM.

**Q.** What about the IC50 [2] of the same compound?
**A.** The IC50 was 3730 nM.

**Q.** For `Cc1ccc(-n2nc(C(C)(C)C)cc2NC(=O)Nc2ccc(OCc3ccnc(Nc4cnc(C(=O)NCCOC(C)C)cn4)c3)c3ccccc23)cc1` [Example 124, 5-((4-(((4-(3-(3-(tert-butyl)-1-(p-tolyl)-1H-pyrazol-5-yl)ureido)naphthalen-1-yl)oxy)methyl)pyridin-2-yl)amino)-N-(2-isopropoxy-ethyl)pyrazine-2-carboxamide], which IC50 [1] is on record?
**A.** Its IC50 is 288 nM.

**Q.** And the IC50 [2]?
**A.** The IC50 was greater than 13700 nM.

**Q.** For `CCNC(=O)c1cnc(Nc2cc(COc3ccc(NC(=O)Nc4cc(C(C)(C)C)nn4-c4ccc(C)cc4)c4ccccc34)ccn2)cn1` [Example 191, 5-((4-(((4-(3-(3-(tert-butyl)-1-(p-tolyl)-1H-pyrazol-5-yl)ureido)naphthalen-1-yl)oxy)methyl)pyridin-2-yl)amino)-N-ethylpyrazine-2-carboxamide], which IC50 [1] is on record?
**A.** The IC50 was 47 nM.

**Q.** What about the IC50 [2] of the same compound?
**A.** The IC50 was 460 nM.

**Q.** Which IC50 [1] does the source give for `Cc1ccc(-n2nc(C(C)(C)C)cc2NC(=O)Nc2ccc(OCc3ccnc(Nc4cnc(C(=O)N5CC[C@@H](N(C)C)C5)cn4)c3)c3ccccc23)cc1` [Example 259, (R)-1-(3-(tert-butyl)-1-(p-tolyl)-1H-pyrazol-5-yl)-3-(4-((2-((5-(3-(dimethylamino)pyrrolidine-1-carbonyl)pyrazin-2-yl)amino)pyridin-4-yl)methoxy)naphthalen-1-yl)urea] here?
**A.** The IC50 was 1.2 nM.

**Q.** What about the IC50 [2] of the same compound?
**A.** The IC50 was 146 nM.

**Q.** `COCCN(CCOC)C(=O)c1cnc(Nc2cc(COc3ccc(NC(=O)Nc4cc(C(C)(C)C)nn4-c4cccc(C)c4)c4ccccc34)ccn2)cn1` [Example 76] was tested. Which IC50 [1] did it give?
**A.** Its IC50 is 15 nM.

**Q.** What about the IC50 [2] of the same compound?
**A.** The IC50 was 148 nM.

**Q.** Which results are given for `COCc1ccc(-n2nc(C(C)(C)C)cc2NC(=O)Nc2ccc(OCc3ccnc(Nc4cnc(C(=O)N5CCCC5)cn4)c3)c3ccccc23)cc1` [Example 217, 1-(3-(tert-butyl)-1-(4-(methoxymethyl)phenyl)-1H-pyrazol-5-yl)-3-(4-((2-((5-(pyrrolidine-1-carbonyl)pyrazin-2-yl)amino)pyridin-4-yl)methoxy)naphthalen-1-yl)urea]?
**A.** IC50 [1]: 17 nM; IC50 [2]: 424 nM

**Q.** How did the IC50 [1] turn out when `CCCc1cncc(Nc2cc(COc3ccc(NC(=O)Nc4cc(C(C)(C)C)nn4-c4cccc(C)c4)c4ccccc34)ccn2)n1` [Example 201, 1-(3-(tert-butyl)-1-(m-tolyl)-1H-pyrazol-5-yl)-3-(4-((2-((6-propylpyrazin-2-yl)amino)pyridin-4-yl)methoxy)naphthalen-1-yl)urea] was run?
**A.** The IC50 was 112 nM.

**Q.** And the IC50 [2]?
**A.** The IC50 was 7900 nM.

**Q.** `Cc1ccc(-n2nc(C(C)(C)C)cc2NC(=O)Nc2ccc(OCc3ccnc(Nc4cnc(C(=O)N5CCC[C@H](O)C5)cn4)c3)c3ccccc23)cc1` [Example 232, (S)-1-(3-(tert-butyl)-1-(p-tolyl)-1H-pyrazol-5-yl)-3-(4-((2-((5-(3-hydroxypiperidine-1-carbonyl)pyrazin-2-yl)amino)pyridin-4-yl)methoxy)naphthalen-1-yl)urea] was tested. Which IC50 [1] did it give?
**A.** The IC50 was 18 nM.

**Q.** And the IC50 [2]?
**A.** The IC50 was 117 nM.

**Q.** How did the IC50 [1] turn out when `COc1cc(-n2nc(C(C)(C)C)cc2NC(=O)Nc2ccc(OCc3ccnc(Nc4cnc(C(=O)N5CCCC5)cn4)c3)c3ccccc23)ccc1C` [Example 226, 1-(3-(tert-butyl)-1-(3-methoxy-4-methylphenyl)-1H-pyrazol-5-yl)-3-(4-((2-((5-(pyrrolidine-1-carbonyl)pyrazin-2-yl)amino)pyridin-4-yl)methoxy)naphthalen-1-yl)urea] was run?
**A.** The IC50 was 35 nM.

**Q.** And the IC50 [2]?
**A.** Its IC50 is greater than 13800 nM.

**Q.** How did the IC50 [1] turn out when `COc1cc(F)cc(-n2nc(C(C)(C)C)cc2NC(=O)Nc2ccc(OCc3ccnc(Nc4cnccn4)c3)c3ccccc23)c1` [Example 220, 1-(3-(tert-butyl)-1-(3-fluoro-5-methoxyphenyl)-1H-pyrazol-5-yl)-3-(4-((2-(pyrazin-2-ylamino)pyridin-4-yl)methoxy)naphthalen-1-yl)urea] was run?
**A.** The IC50 was 31 nM.

**Q.** What about the IC50 [2] of the same compound?
**A.** The IC50 was 164 nM.

**Q.** How did the IC50 [1] turn out when `CCc1cncc(Nc2cc(COc3ccc(NC(=O)Nc4cc(C(C)(C)C)nn4-c4ccc(C)c(C)c4)c4ccccc34)ccn2)n1` [Example 144, 1-(3-(tert-butyl)-1-(3,4-dimethylphenyl)-1H-pyrazol-5-yl)-3-(4-((2-((6-ethylpyrazin-2-yl)amino)pyridin-4-yl)methoxy)naphthalen-1-yl)urea] was run?
**A.** The IC50 was 63 nM.

**Q.** And the IC50 [2]?
**A.** The IC50 was 518 nM.

**Q.** Which IC50 [1] does the source give for `Cc1ccc(-n2nc(C(C)(C)C)cc2NC(=O)Nc2ccc(OCc3ccnc(Nc4cnc(C(=O)NCCO)cn4)c3)c3ccccc23)cc1` [Example 53, 5-((4-(((4-(3-(3-(tert-Butyl)-1-(p-tolyl)-1H-pyrazol-5-yl)ureido)naphthalen-1-yl)oxy)methyl)pyridin-2-yl)amino)-N-(2-hydroxyethyl)pyrazine-2-carboxamide] here?
**A.** Its IC50 is 17 nM.

**Q.** And the IC50 [2]?
**A.** Its IC50 is 95 nM.

**Q.** Which results are given for `CCc1cnc(Nc2cc(COc3ccc(NC(=O)Nc4cc(C(C)(C)C)nn4-c4cccc(C)c4)c4ccccc34)ccn2)cn1` [Example 159, 1-(3-(tert-butyl)-1-(m-tolyl)-1H-pyrazol-5-yl)-3-(4-((2-((5-ethylpyrazin-2-yl)amino)pyridin-4-yl)methoxy)naphthalen-1-yl)urea]?
**A.** IC50 [1]: 36 nM; IC50 [2]: 427 nM

**Q.** With `Cc1cc(C)cc(-n2nc(C(C)(C)C)cc2NC(=O)Nc2ccc(OCc3ccnc(Nc4cnccn4)c3)c3ccccc23)c1` [Example 180, 1-(3-(tert-butyl)-1-(3,5-dimethylphenyl)-1H-pyrazol-5-yl)-3-(4-((2-(pyrazin-2-ylamino)pyridin-4-yl)methoxy)naphthalen-1-yl) urea] as the compound, how does the IC50 [1] read?
**A.** The IC50 was 19 nM.

**Q.** And the IC50 [2]?
**A.** The IC50 was 112 nM.

**Q.** `COc1cc(-n2nc(C(C)(C)C)cc2NC(=O)Nc2ccc(OCc3ccnc(Nc4cnccn4)c3)c3ccccc23)ccn1` [Example 264, 1-(3-(tert-butyl)-1-(2-methoxypyridin-4-yl)-1H-pyrazol-5-yl)-3-(4-((2-(pyrazin-2-ylamino)pyridin-4-yl)methoxy)naphthalen-1-yl)urea] was tested. Which IC50 [1] did it give?
**A.** Its IC50 is 23 nM.

**Q.** And the IC50 [2]?
**A.** Its IC50 is 109 nM.

**Q.** `CCc1nc(Nc2cc(COc3ccc(NC(=O)Nc4cc(C(C)(C)C)nn4-c4ccc(C)cc4)c4ccccc34)ccn2)cnc1C` [Example 143, 1-(3-(tert-butyl)-1-(p-tolyl)-1H-pyrazol-5-yl)-3-(4-((2-((6-ethyl-5-methylpyrazin-2-yl)amino)pyridin-4-yl)methoxy)naphthalen-1-yl) urea] was tested. Which IC50 [1] did it give?
**A.** The IC50 was 19 nM.

**Q.** And the IC50 [2]?
**A.** The IC50 was 211 nM.
